{"source": "ChEMBL document CHEMBL4765241", "about": "“Identification and Preclinical Pharmacology of ((1 R,3 S)-1-Amino-3-(( S)-6-(2-methoxyphenethyl)-5,6,7,8-tetrahydronaphthalen-2-yl)cyclopentyl)methanol (BMS-986166): A Differentiated Sphingosine-1-phosphate Receptor 1 (S1P) Modulator Advanced into Clinical Trials” (J Med Chem, 2019)", "key": {"Rattus norvegicus [1]": {"tested_on": "Rattus norvegicus", "assay": "Reduction in circulating lymphocytes in Lewis rat blood at 2 mg/kg, po measured at 4 hrs by hematology analyzer based analysis", "type": "functional", "set-up": "scale not given: the % may be the effect or the level left"}, "Rattus norvegicus [2]": {"tested_on": "Rattus norvegicus", "assay": "Reduction in circulating lymphocytes in Lewis rat blood at 2 mg/kg, po measured at 24 hrs by hematology analyzer based analysis", "type": "functional", "set-up": "scale not given: the % may be the effect or the level left"}, "[3]": {"assay": "Drug metabolism in Lewis rat blood assessed as concentration of parent compound at 2 mg/kg, po measured at 24 hrs by LC-MS/MS analysis", "type": "ADME, organism-based", "conditions": "read-out: Ct"}, "[4]": {"assay": "Half-life in Lewis rat at 2 mg/kg, po measured over 72 hrs by LC-MS/MS analysis", "type": "ADME, organism-based", "conditions": "in vivo"}, "[5]": {"assay": "Pulmonary toxicity in Lewis rat assessed as elevation of BAL protein level at 3 mg/kg by advia1800 chemistry analyzer", "type": "organism-based", "conditions": "in vivo"}, "Rattus norvegicus [6]": {"tested_on": "Rattus norvegicus", "assay": "Reduction in circulating lymphocytes in Lewis rat blood assessed as effective dose after oral dosing measured at 24 hrs by hematology analyzer based analysis", "type": "functional"}, "[7]": {"assay": "Clearance in cynomolgus monkey at 1 mg/kg, iv", "type": "ADME, organism-based, Macaca fascicularis", "conditions": "in vivo"}, "[8]": {"assay": "Volume of distribution at steady state in Sprague-Dawley rat at 1 mg/kg, po or 1 mg/kg, iv", "type": "ADME, organism-based", "conditions": "in vivo, read-out: Vdss"}, "[9]": {"assay": "Volume of distribution at steady state in Beagle dog at 0.3 mg/kg, po or 1 mg/kg, iv", "type": "ADME, organism-based, Canis lupus familiaris", "conditions": "in vivo, read-out: Vdss"}, "[10]": {"assay": "Volume of distribution at steady state in cynomolgus monkey at 1 mg/kg, po or 1 mg/kg, iv", "type": "ADME, organism-based, Macaca fascicularis", "conditions": "in vivo, read-out: Vdss"}, "[11]": {"assay": "Terminal half-life in Sprague-Dawley rat at 1 mg/kg, iv", "type": "ADME, organism-based", "conditions": "in vivo, read-out: beta t1/2 (converted)"}, "[12]": {"assay": "Terminal half-life in cynomolgus monkey at 1 mg/kg, iv", "type": "ADME, organism-based, Macaca fascicularis", "conditions": "in vivo, read-out: beta t1/2 (converted)"}, "[13]": {"assay": "Oral bioavailability in Sprague-Dawley rat at 1 mg/kg", "type": "ADME, organism-based", "conditions": "in vivo"}, "[14]": {"assay": "Oral bioavailability in beagle dog at 0.3 mg/kg", "type": "ADME, organism-based, Canis lupus familiaris", "conditions": "in vivo"}, "[15]": {"assay": "Tmax in Beagle dog at 0.3 mg/kg, po or 1 mg/kg, iv", "type": "ADME, organism-based, Canis lupus familiaris", "conditions": "in vivo"}, "[16]": {"assay": "Tmax in cynomolgus monkey at 1 mg/kg, po or 1 mg/kg, iv", "type": "ADME, organism-based, Macaca fascicularis", "conditions": "in vivo"}, "[17]": {"assay": "AUC ratio in orally dosed Sprague-Dawley rat blood assessed as phosphate metabolite to parent compound", "type": "ADME, organism-based", "conditions": "in vivo, po"}, "[18]": {"assay": "AUC ratio in orally dosed cynomolgus monkey blood assessed as phosphate metabolite to parent compound", "type": "ADME, organism-based, Macaca fascicularis", "conditions": "in vivo, po"}, "Cytochrome P450 1A2": {"target": "T1, Cytochrome P450 1A2 (Homo sapiens, UniProt P05177)", "T1 sequence (P05177 whole entry)": "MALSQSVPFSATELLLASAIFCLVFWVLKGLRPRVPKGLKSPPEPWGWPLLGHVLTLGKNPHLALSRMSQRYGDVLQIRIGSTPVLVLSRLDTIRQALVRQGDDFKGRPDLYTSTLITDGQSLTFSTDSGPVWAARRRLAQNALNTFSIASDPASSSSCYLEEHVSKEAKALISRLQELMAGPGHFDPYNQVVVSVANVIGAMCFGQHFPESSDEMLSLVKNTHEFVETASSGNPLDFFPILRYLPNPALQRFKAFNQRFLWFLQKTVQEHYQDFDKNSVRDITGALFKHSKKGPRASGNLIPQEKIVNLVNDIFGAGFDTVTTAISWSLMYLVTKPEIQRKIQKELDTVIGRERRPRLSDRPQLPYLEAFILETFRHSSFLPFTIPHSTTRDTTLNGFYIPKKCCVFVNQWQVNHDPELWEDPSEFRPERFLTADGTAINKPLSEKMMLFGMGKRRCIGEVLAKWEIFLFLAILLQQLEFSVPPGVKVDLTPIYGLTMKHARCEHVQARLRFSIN", "assay": "Inhibition of CYP1A2 (unknown origin)", "type": "ADME"}, "Cytochrome P450 2C9": {"target": "Cytochrome P450 2C9 (Homo sapiens, UniProt P11712)", "sequence (P11712 whole entry)": "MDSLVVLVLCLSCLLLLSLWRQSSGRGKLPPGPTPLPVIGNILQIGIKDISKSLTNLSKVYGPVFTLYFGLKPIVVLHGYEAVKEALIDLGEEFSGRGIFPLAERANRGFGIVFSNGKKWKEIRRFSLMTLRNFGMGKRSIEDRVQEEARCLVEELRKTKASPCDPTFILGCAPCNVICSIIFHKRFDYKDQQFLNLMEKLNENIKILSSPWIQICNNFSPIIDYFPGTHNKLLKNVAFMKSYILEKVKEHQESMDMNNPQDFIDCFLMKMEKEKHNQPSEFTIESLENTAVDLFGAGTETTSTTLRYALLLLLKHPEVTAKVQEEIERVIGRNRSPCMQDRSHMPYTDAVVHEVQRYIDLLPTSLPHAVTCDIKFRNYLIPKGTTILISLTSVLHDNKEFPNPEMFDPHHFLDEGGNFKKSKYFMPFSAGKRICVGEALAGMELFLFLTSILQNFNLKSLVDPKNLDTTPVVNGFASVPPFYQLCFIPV", "assay": "Inhibition of CYP2C9 (unknown origin)", "type": "ADME"}, "Cytochrome P450 2D6": {"target": "Cytochrome P450 2D6 (Homo sapiens, UniProt P10635)", "sequence (P10635 whole entry)": "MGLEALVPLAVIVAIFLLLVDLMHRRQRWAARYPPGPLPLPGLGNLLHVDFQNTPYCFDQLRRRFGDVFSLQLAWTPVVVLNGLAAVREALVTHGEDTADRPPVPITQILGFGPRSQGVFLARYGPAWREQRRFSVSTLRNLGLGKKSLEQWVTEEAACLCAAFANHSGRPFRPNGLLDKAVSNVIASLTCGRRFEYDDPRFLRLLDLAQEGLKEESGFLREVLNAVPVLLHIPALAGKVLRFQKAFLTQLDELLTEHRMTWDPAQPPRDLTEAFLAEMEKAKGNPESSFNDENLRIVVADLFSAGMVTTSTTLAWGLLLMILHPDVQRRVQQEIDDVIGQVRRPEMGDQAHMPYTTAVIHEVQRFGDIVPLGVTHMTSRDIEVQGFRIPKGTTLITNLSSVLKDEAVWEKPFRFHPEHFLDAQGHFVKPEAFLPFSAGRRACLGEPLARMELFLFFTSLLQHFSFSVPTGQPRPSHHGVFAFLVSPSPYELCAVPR", "assay": "Inhibition of CYP2D6 (unknown origin)", "type": "ADME"}, "Cytochrome P450 2C8": {"target": "T2, Cytochrome P450 2C8 (Homo sapiens, UniProt P10632)", "T2 sequence (P10632 whole entry)": "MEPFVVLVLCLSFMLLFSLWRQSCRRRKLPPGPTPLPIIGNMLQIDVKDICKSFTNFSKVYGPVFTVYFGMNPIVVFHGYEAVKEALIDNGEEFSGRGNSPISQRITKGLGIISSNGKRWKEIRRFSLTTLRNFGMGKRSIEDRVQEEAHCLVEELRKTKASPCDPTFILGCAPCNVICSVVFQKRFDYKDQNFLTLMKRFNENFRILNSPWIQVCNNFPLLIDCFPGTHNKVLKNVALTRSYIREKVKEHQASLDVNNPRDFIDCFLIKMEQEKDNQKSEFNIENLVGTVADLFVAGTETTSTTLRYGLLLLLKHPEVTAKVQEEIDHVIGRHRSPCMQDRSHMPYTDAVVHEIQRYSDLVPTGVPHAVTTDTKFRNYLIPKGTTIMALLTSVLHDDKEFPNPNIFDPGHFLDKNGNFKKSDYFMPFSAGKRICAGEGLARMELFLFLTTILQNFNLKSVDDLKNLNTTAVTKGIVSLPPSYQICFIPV", "assay": "Inhibition of CYP2C8 (unknown origin)", "type": "ADME"}, "[19]": {"assay": "Protein binding in human assessed as bound fraction", "type": "ADME", "conditions": "read-out: PB"}, "[20]": {"assay": "Protein binding in rat assessed as bound fraction", "type": "ADME", "conditions": "read-out: PB"}, "[21]": {"assay": "Protein binding in dog assessed as bound fraction", "type": "ADME, Canis lupus familiaris", "conditions": "read-out: PB"}, "[22]": {"assay": "Metabolic stability in human liver microsomes assessed as half-life measured upto 120 mins in presence of NADPH-generating system by LC/MS/MS analysis", "type": "ADME, Microsome"}, "[23]": {"assay": "Metabolic stability in rat liver microsomes assessed as half-life measured upto 120 mins in presence of NADPH-generating system by LC/MS/MS analysis", "type": "ADME, Microsome"}, "[24]": {"assay": "Metabolic stability in cynomolgus monkey liver microsomes assessed as half-life", "type": "ADME, Macaca fascicularis, Microsome"}, "Mus musculus [25]": {"tested_on": "Mus musculus", "assay": "Immunosuppressive activity in MOG (35 to 55 residues)/pertussis toxin-induced experimental autoimmune encephalomyelitis C57BL/6 mouse model assessed as reduction in EAE clinical scores at 0.1 to 0.5 mg/kg, po QD starting from day 1 post immunization and observed at day 12 until day 24 relative to control", "type": "functional, organism-based", "conditions": "dose 0.1-0.5 mg/kg"}, "Mus musculus [26]": {"tested_on": "Mus musculus", "assay": "Immunosuppressive activity in MOG (35 to 55 residues)/pertussis toxin-induced experimental autoimmune encephalomyelitis C57BL/6 mouse model assessed as reduction in formation of inflammatory lesions in CNS administered orally once daily starting from day 1 post immunization and measured thrice weekly until day 24", "type": "functional, organism-based", "conditions": "dose 0.1-0.5 mg/kg"}, "Mus musculus [27]": {"tested_on": "Mus musculus", "assay": "Antiarthritic activity in DBA/1 mouse model of collagen-induced arthritis assessed as reduction in clinical score administered orally once daily as single dose for 21 days", "type": "functional, organism-based", "conditions": "time 21.0 day"}, "Mus musculus [28]": {"tested_on": "Mus musculus", "assay": "Antiarthritic activity in DBA/1 mouse model of collagen-induced arthritis assessed as reduction in paw histological score administered orally once daily as single dose for 21 days", "type": "functional, organism-based", "conditions": "time 21.0 day"}, "Mus musculus [29]": {"tested_on": "Mus musculus", "assay": "Antiarthritic activity in DBA/1 mouse model of collagen-induced arthritis assessed as maximum efficacy causing reduction in paw histological score administered orally once daily as single dose for 21 days", "type": "functional", "conditions": "time 21 day"}, "Mus musculus [30]": {"tested_on": "Mus musculus", "assay": "(§1) Immunosuppressive activity in MOG (35 to 55 residues)/pertussis toxin-induced experimental autoimmune encephalomyelitis C57BL/6 mouse model assessed as maximum efficacy causing reduction in EAE clinical score administered orally once daily starting from day 1 post immunization and measured thrice weekly until day 24", "type": "functional"}, "Mus musculus [31]": {"tested_on": "Mus musculus", "assay": "as §1, with “EAE spinal cord” for “EAE”", "type": "functional"}}, "note": "Calls of active or inactive are those of the source. The rule behind the calls is not given here."}
{"compound": "COc1ccccc1CC[C@@H]1CCc2cc([C@H]3CC[C@](N)(CO)C3)ccc2C1", "note": "[UDIFITIMOD]", "values": [{"measurement": "Activity", "setting": "Rattus norvegicus [1]", "value": 76, "unit": "%"}, {"measurement": "Activity", "setting": "Rattus norvegicus [2]", "value": 81, "unit": "%"}, {"measurement": "concentration at 24 h", "setting": "[3]", "value": 30, "unit": "nM"}, {"measurement": "half-life", "setting": "[4]", "value": 27, "unit": "h"}, {"measurement": "Activity", "setting": "[5]", "value": 8.8, "unit": "mg/dL"}, {"measurement": "ED50", "setting": "Rattus norvegicus [6]", "value": 0.1, "unit": "mg/kg"}, {"measurement": "clearance", "setting": "[7]", "value": 3.8, "unit": "mL/min/kg"}, {"measurement": "Vd", "setting": "[8]", "value": 16, "unit": "L/kg"}, {"measurement": "Vd", "setting": "[9]", "value": 21, "unit": "L/kg"}, {"measurement": "Vd", "setting": "[10]", "value": 10, "unit": "L/kg"}, {"measurement": "half-life", "setting": "[11]", "value": 38, "unit": "h"}, {"measurement": "half-life", "setting": "[12]", "value": 46, "unit": "h"}, {"measurement": "bioavailability", "setting": "[13]", "value": 23, "unit": "%"}, {"measurement": "bioavailability", "setting": "[14]", "value": 61, "unit": "%"}, {"measurement": "Tmax", "setting": "[15]", "value": 6, "unit": "h"}, {"measurement": "Tmax", "setting": "[16]", "value": 6, "unit": "h"}, {"measurement": "Ratio AUC", "setting": "[17]", "value": 5.2}, {"measurement": "Ratio AUC", "setting": "[18]", "value": 1}, {"measurement": "IC50", "setting": "Cytochrome P450 1A2", "value": "> 20", "unit": "µM"}, {"measurement": "IC50", "setting": "Cytochrome P450 2C9", "value": 14, "unit": "µM"}, {"measurement": "IC50", "setting": "Cytochrome P450 2D6", "value": 18, "unit": "µM"}, {"measurement": "IC50", "setting": "Cytochrome P450 2C8", "value": 8.6, "unit": "µM"}, {"measurement": "fraction unbound", "setting": "[19]", "value": "< 0.001"}, {"measurement": "fraction unbound", "setting": "[20]", "value": "< 0.001"}, {"measurement": "fraction unbound", "setting": "[21]", "value": "< 0.001"}, {"measurement": "half-life", "setting": "[22]", "value": 4.03, "unit": "h"}, {"measurement": "half-life", "setting": "[23]", "value": 1.62, "unit": "h"}, {"measurement": "half-life", "setting": "[24]", "value": 1.83, "unit": "h"}, {"measurement": "Activity", "setting": "Mus musculus [25]", "value": "Active"}, {"measurement": "Activity", "setting": "Mus musculus [26]", "value": "Dose-dependent effect"}, {"measurement": "Activity", "setting": "Mus musculus [27]", "value": "Active"}, {"measurement": "Activity", "setting": "Mus musculus [28]", "value": "Active"}, {"measurement": "Emax", "setting": "Mus musculus [29]", "value": 0.5, "unit": "mg/kg/day"}, {"measurement": "Emax", "setting": "Mus musculus [30]", "value": 0.5, "unit": "mg/kg/day"}, {"measurement": "Emax", "setting": "Mus musculus [31]", "value": 0.5, "unit": "mg/kg/day"}]}
